# Key:
# L6 muscle cells = test: [3H]-2-deoxyglucose (2DG) uptake in L6 muscle cells with and without added insulin (Study 1); assay type: cell-based
# Experimental: L6 Muscle cells were obtained from the European Culture Collection (Porton Down) and were used at passages 7-11. Cells were maintained in standard tissue culture medium DMEM, and glucose uptake was assessed using [^3H]-2-deoxyglucose (2DG) with and without the presence of added insulin (10^−8 M) as has been previously described (Walker P S et al, Glucose transport activity in L6 muscle cells is regulated by the coordinate control of subcellular glucose transporter distribution, biosynthesis, and mRNA transcription, JBC, 1990;265(3), 1516-1523, and Kilp A et al, Stimulation of hexose transport by metformin in L6 muscle cells in culture, Endocrinology, 1992;130(5), 2535-2544).
# Uptake of 2DG was expressed as the percentage change compared with control. Values are presented as mean±SEM of sets of 4 wells per experiment. Differences between sets of wells were evaluated by Student's t test, probability values p<0.05 were considered to be significant. […] In the presence of added insulin (10^−8 M), significant increases in 2DG uptake were observed following 24 hour incubation with the compound of formula I in which R1 and R2 are both methyl (sibutramine hydrochloride monohydrate) at 10^−8 M (from 149.9±4.3 to165.3±2.6), the compound of formula I in which R1 is methyl and R2 is H at 10^−7 M (from 147.3±3.0 to 160.7±4.5), and the compound of formula I in which R1 and R2 are both H, at 10^−7 M and 10^−6 M (from 149.1±3.9 to 161.8±3.3 and 165.2±3.6 respectively).
# [1] = tested on: ob/ob mice (Aston Strain); test: 6 weeks of treatment (5 mg/kg/day po) and 6 weeks of withdrawal in young ob/ob mice: body weight, plasma insulin, ip glucose tolerance test, insulin hypoglycaemia test (Study 3); assay type: in vivo
# Experimental: Young ob/ob mice (Aston Strain) were randomised into 3 groups as follows: control, receiving placebo treatment (phosphate buffered saline 2.5 ml/kg/day po); sibutramine hydrochloride monohydrate-treated (5 mg/kg/day po); and pair-fed control, supplied with the same daily food intake as that consumed by the sibutramine hydrochloride monohydrate-treated group on the previous day. There was a 1 week run-in period followed by 6 weeks of treatment. Body weight and food intake were monitored every 1 to 2 days, and blood samples for plasma glucose and insulin were taken from the tail vein at weekly intervals in the non-fasted state at 11 a.m. An ip glucose tolerance test (D-glucose, 2 g/kg in 40% w/v solution in distilled water) and an insulin hypoglycaemia test (Actrapid, Novo-Nordisk, 2.5 u/kg ip) were conducted after 5 weeks of treatment. Food was withheld only for the duration of these tests (approx. 4 hours). The basal blood samples and the test procedures were undertaken 18 hours after the last treatment administration.
# Treatment was stopped after 6 weeks, and the mice were monitored for the next 6 weeks. The pair-fed mice continued to be pair-fed with respect to the sibutramine hydrochloride monohydrate withdrawal group. A second insulin hypoglycaemia test was conducted 4 weeks after treatment was stopped. Plasma glucose was determined by an automated glucose oxidase procedure (Beckman) and plasma insulin determined by radioimmunnoassay (Amerlex, Amersham).
# [2] = tested on: ob/ob mice (Aston Strain); test: Chronic administration (10 mg/kg po) and withdrawal in obese ob/ob mice: plasma glucose, plasma insulin, body weight, food intake (Study 2); assay type: in vivo
# Experimental: Studies were performed in obese ob/ob mice (Aston Strain) which are a model of severe insulin resistance and are also hyperglycaemic. The derivation and characteristics of this animal model have been previously described (Flatt P R, Bailey C J, Development of glucose intolerance and impaired plasma insulin response to glucose in obese hyperglycaemic (ob/ob) mice, Horm Metab Res 1981;13:556-560, and Bailey C J et al, Influence of genetic background and age on the expression of the obese hyperglycaemic syndrome in Aston ob/ob mice, Int J Obesity, 1982;6:11-21).
# The ob/ob mice were individually housed in polypropylene cages at a temperature of 21±1° C. and 55% humidity. The mice had free access to a standard rat and mouse pelleted diet (Compound Rat and Mouse Diet, Special Diet Services, Witham, Essex) and tap water at all times. Animals were maintained on a reverse phase light-dark cycle. Lights were off between 09.00 h and 17.00 h in the acute experiment and between 10.00 h and 18.00 h in the chronic experiment. During this time the laboratory was illuminated by red lamps. Animals were acclimatised to these conditions for at least two weeks before experimentation.
# All animals were given deionised water (at the start of the dark period) for 7 days. Body weight and food intake were measured daily. Blood samples were taken immediately before daily administration of vehicle (deionised water 10 ml/kg po) or compound of formula I in which R1 and R2 are both methyl (sibutramine hydrochloride monohydrate; 10 mg/kg po) on day 1 (baseline) and after 14 and 28 days of treatment (on day 15 and day 29 respectively). Blood samples were also taken 14 days following withdrawal of the sibutramine hydrochloride monohydrate (on day 43 of the study). Plasma glucose was determined by a glucose oxidase procedure (Analox GM7) and plasma insulin determined by radioimmunoassay (Amerlex, Amersham).
# [3] = added insulin 10^−8 M, 24 hour incubation, compound 10^−7 M, insulin alone 147.3±3.0 (R1 methyl, R2 H) or 149.1±3.9 (both H), mean±SEM
# [4] = 6 week withdrawal period after 5 mg/kg/day po, vs vehicle treated group, for almost all of the period
# [5] = compound group, day 1 of study, prior to treatment (baseline), mean ± SEM
smiles,measurement,setting,value
CNC(CC(C)C)C1(c2ccc(Cl)cc2)CCC1 (stereo not drawn) [N-{1-[1-(4-chlorophenyl)cyclobutyl]-3-methylbutyl}-N-methylamine],"Uptake of 2DG, percentage change compared with control",L6 muscle cells; [3],160.7±4.5%
CC(C)CC(N)C1(c2ccc(Cl)cc2)CCC1 (stereo not drawn) [1-[1-(4-chlorophenyl)cyclobutyl]-3-methylbutylamine],"Uptake of 2DG, percentage change compared with control","L6 muscle cells; absence of added insulin, 24 hours incubation, compound 10^−6 M, control 100±2.1, mean±SEM",134±7.3%
same,"Uptake of 2DG, percentage change compared with control","L6 muscle cells; absence of added insulin, 24 hours incubation, compound 10^−7 M, control 100±2.1, mean±SEM",123.9±4.3%
same,"Uptake of 2DG, percentage change compared with control","L6 muscle cells; absence of added insulin, 24 hours incubation, compound 10^−8 M, control 100±2.1, mean±SEM",116.9±3.8%
same,"Uptake of 2DG, percentage change compared with control","L6 muscle cells; added insulin 10^−8 M, 24 hour incubation, compound 10^−6 M, insulin alone 149.1±3.9, mean±SEM",165.2±3.6%
same,"Uptake of 2DG, percentage change compared with control",L6 muscle cells; [3],161.8±3.3%
"CC(C)CC(N(C)C)C1(c2ccc(Cl)cc2)CCC1.Cl.O (stereo not drawn) [sibutramine hydrochloride monohydrate, N,N-dimethyl-1-[1-(4-chlorophenyl)cyclobutyl]-3-methylbutylamine hydrochloride monohydrate]","Uptake of 2DG, percentage change compared with control","L6 muscle cells; added insulin 10^−8 M, 24 hour incubation, compound 10^−8 M, insulin alone 149.9±4.3, mean±SEM",165.3±2.6%
same,Plasma insulin in ip glucose tolerance test (in words),"[1]; 5 mg/kg/day po, after 5 weeks of treatment, D-glucose 2 g/kg ip, vs vehicle, P<0.05, FIG. 1",significant reductions
same,Plasma glucose in ip glucose tolerance test (in words),"[1]; 5 mg/kg/day po, after 5 weeks of treatment, D-glucose 2 g/kg ip, vs vehicle, P<0.05, FIG. 2",significant reductions
same,Insulin hypoglycaemia test (in words),"[1]; 5 mg/kg/day po, at 5 weeks, insulin 2.5 u/kg ip, vs vehicle, P<0.05, FIG. 3",Significant improvements
same,Body weight (in words),"[1]; 5 mg/kg/day po, during 6 weeks of treatment, compared to vehicle",significant reduction
same,Plasma insulin (in words),"[1]; 5 mg/kg/day po, during 6 weeks of treatment, non-fasted, compared to vehicle",significant reduction
same,Body weight (in words),[1]; [4],remained significantly lower
same,Plasma insulin (in words),[1]; [4],remained significantly lower
same,Plasma glucose (in words),"[2]; 10 mg/kg po daily, after 14 and 28 days of treatment, significant difference from control at day 28 (P<0.01)",fell
same,Plasma glucose,"[2]; 10 mg/kg po daily, day 15 of study (14 days of treatment), vehicle 21.7 ± 0.9, mean ± SEM",19.0 ± 0.6 mmol/L
same,Plasma insulin,"[2]; 10 mg/kg po daily, day 15 of study (14 days of treatment), vehicle 49.7 ± 3.5, mean ± SEM",45.1 ± 2.6 ng/mL
same,Plasma glucose,"[2]; 10 mg/kg po daily, day 29 of study (28 days of treatment), vehicle 26.0 ± 1.4, **P < 0.01 vs vehicle, mean ± SEM",15.8 ± 0.7** mmol/l
same,Plasma insulin,"[2]; 10 mg/kg po daily, day 29 of study (28 days of treatment), vehicle 46.2 ± 4.5, mean ± SEM",35.1 ± 2.7 ng/mL
same,Plasma insulin (in words),"[2]; 10 mg/kg po daily, tended to fall on treatment and increased on withdrawal",No significant changes
same,Body weight (in words),"[2]; 10 mg/kg po daily, vs vehicle",No significant changes
same,Food intake (in words),"[2]; 10 mg/kg po daily, vs vehicle",No significant changes
same,Plasma glucose (in words),"[2]; after 14 days of drug withdrawal, rose to control values",rose significantly
same,Plasma glucose,[2]; [5],24.3 ± 0.6 mmol/L
same,Plasma insulin,[2]; [5],92.0 ± 4.5 ng/mL
same,Plasma glucose,"[2]; day 43 of study, 14 days after drug withdrawal, vehicle 22.9 ± 1.7, mean ± SEM",23.6 ± 1.2 mmol/L
same,Plasma insulin,"[2]; day 43 of study, 14 days after drug withdrawal, vehicle 40.6 ± 8.6, mean ± SEM",77.1 ± 11.3 ng/mL

# — patent publication US6617360B1, “Medical treatment” (Knoll Aktiengesellschaft, priority 1996, dated 2003)
